In the test the test system is Aβ fiber. The experiment in a line: PRD pharmacological assessment of sciatic nerve pain. Type of test: in vivo, human. The text has this: According to one embodiment, the neuro-stimulator can be integrated with a smartphone, thereby allowing for the detection of mechanism specific nociception via recording and parameterization of the PRD under a multitude of conditions. Parameterization of the PRD curve includes two static measures: a pupillary baseline and peak dilation diameters (dilation amplitude or DA), and at least three dynamic measures: slopes of the ascending and descending portions of the PRD curve representing the dilation velocity (DV) and recovery velocity, as well as the duration of the reflex, and the area under the curve representing pain sensitivity/intensity.
By one embodiment, large-fiber neuropathic pain is transmitted via Aβ nerve fiber type, which is stimulated at 2000 Hz. Neuropathic pain is detected and measured by examining the relationship of the parameters of the PRD to a 2000 Hz stimulus. Small fiber neuropathic pain is transmitted via C-fiber and Aδ fibers, and is often seen with metabolic disorders such as diabetes or chemotherapy induced neuropathic pain. The neuropathic pain index (NPI) integrates the intensity stimulus (mA) relative to the DV, DA, AUC and recovery time. Accordingly, neuropathic pain can be defined with respect to whether the pain is a small fiber based pain or a large fiber based pain. Moreover the NPI provisions for flexibility of monitoring an intervention. […]

Regarding `NCC1(CC(=O)O)CCCCC1` [Gabapentin], the “pain sensitivity (PRD) in sciatic nerve pain” value (compression of the Aβ fiber, large fiber neuropathic pain (FIG. 8B)) is given as “diminishes the pain sensitivity”. Further, the “area under the PRD curve compared with opioid intervention” value (sciatic nerve pain (FIG. 8B)) is “substantially smaller”.

The values above are taken from patent publication US10555687B2, “Apparatus and method for physiologic and pharmacodynamic assessment and monitoring” (priority 2015, dated 2020).
